Experimental data from the supplement of paper PMC10733146.

Key:
Experiment in all cases: viability relative to DMSO control (fraction); higher = less drug effect (more viable cells)
Conditions in all cases: 48 h
[1] = test system: primary AML patient cells (S006)
In short: (§1)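 Viability was quantified by CellTiter-Glo luminescence and related to the median of 16 inner DMSO wells. Before that, primary mononuclear tumour cells, fresh or cryopreserved and Ficoll-isolated from blood or bone marrow or prepared from processed lymph node, were plated at 4 × 10^4 cells per well in 384-well plates containing pre-plated compounds at five concentrations, one well each. Plates were incubated in RPMI-1640 with penicillin/streptomycin, L-glutamine and human serum at 37 °C and 5% CO2 for 48 h.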

[2] = test system: primary AML patient cells (S089)
In short: as §1

[3] = test system: primary AML patient cells (S021)
In short: as §1

[4] = test system: primary AML patient cells (S037)
In short: as §1

[5] = test system: primary AML patient cells (S081)
In short: as §1

[6] = test system: primary AML patient cells (S011)
In short: as §1

[7] = test system: primary AML patient cells (S019)
In short: as §1

[8] = test system: primary AML patient cells (S017)
In short: as §1

[9] = test system: primary AML patient cells (S012)
In short: as §1

[10] = test system: primary AML patient cells (S085)
In short: as §1

[11] = test system: primary AML patient cells (S025)
In short: as §1

[12] = test system: primary AML patient cells (S091)
In short: as §1

[13] = test system: primary AML patient cells (S002)
In short: as §1

[14] = test system: primary CLL patient cells (S043)
In short: as §1

Molecule `O=C(Nc1cccc(C(F)(F)F)c1)Nc1cc(S(=O)(=O)NC2CC2)ccc1-c1ccsc1` [AGI-6780] has a viability ([1]; 0.024 µM) of 0.94, a viability ([1]; 0.12 µM) of 1.01 and a viability ([1]; 0.6 µM) of 1.02. It also gave a viability ([1]; 3 µM) of 0.974, a viability ([1]; 15 µM) of 0.993 and a viability ([2]; 0.024 µM) of 0.717. The viability ([2]; 0.12 µM) was 0.925, the viability ([2]; 0.6 µM) was 0.822 and the viability ([2]; 3 µM) was 0.84. It also gave a viability ([2]; 15 µM) of 0.637, a viability ([3]; 0.024 µM) of 0.881 and a viability ([3]; 0.12 µM) of 0.894. It also gave a viability ([3]; 0.6 µM) of 0.878, a viability ([3]; 3 µM) of 0.891 and a viability ([3]; 15 µM) of 0.676. It also gave a viability ([4]; 0.024 µM) of 0.971, a viability ([4]; 0.12 µM) of 1.02 and a viability ([4]; 0.6 µM) of 0.955. It also gave a viability ([4]; 3 µM) of 0.877, a viability ([4]; 15 µM) of 0.889 and a viability ([5]; 0.024 µM) of 0.829. It also gave a viability ([5]; 0.12 µM) of 0.956, a viability ([5]; 0.6 µM) of 0.878 and a viability ([5]; 3 µM) of 0.756. The viability ([5]; 15 µM) was 0.841, the viability ([6]; 0.024 µM) was 0.76 and the viability ([6]; 0.12 µM) was 0.761. It also gave a viability ([6]; 0.6 µM) of 0.802, a viability ([6]; 3 µM) of 0.778 and a viability ([6]; 15 µM) of 0.666. The viability ([7]; 0.024 µM) was 1.17, the viability ([7]; 0.12 µM) was 1.26 and the viability ([7]; 0.6 µM) was 1.27. For the same molecule, the viability ([7]; 3 µM) was 1.13, the viability ([7]; 15 µM) was 1.18 and the viability ([8]; 0.024 µM) was 0.881. For the same molecule, the viability ([8]; 0.12 µM) was 0.938, the viability ([8]; 0.6 µM) was 0.919 and the viability ([8]; 3 µM) was 0.908. For the same molecule, the viability ([8]; 15 µM) was 0.982, the viability ([9]; 0.024 µM) was 1.03 and the viability ([9]; 0.12 µM) was 1.01. It also gave a viability ([9]; 0.6 µM) of 1, a viability ([9]; 3 µM) of 0.941 and a viability ([9]; 15 µM) of 0.868. For the same molecule, the viability ([10]; 0.024 µM) was 0.793, the viability ([10]; 0.12 µM) was 0.809 and the viability ([10]; 0.6 µM) was 0.734. For the same molecule, the viability ([10]; 3 µM) was 0.672, the viability ([10]; 15 µM) was 0.691 and the viability ([11]; 0.024 µM) was 0.949. For the same molecule, the viability ([11]; 0.12 µM) was 1.06, the viability ([11]; 0.6 µM) was 0.978 and the viability ([11]; 3 µM) was 0.905. The viability ([11]; 15 µM) was 0.839, the viability ([12]; 0.024 µM) was 1.02 and the viability ([12]; 0.12 µM) was 1.05. For the same molecule, the viability ([12]; 0.6 µM) was 0.975, the viability ([12]; 3 µM) was 0.989 and the viability ([12]; 15 µM) was 0.924. For the same molecule, the viability ([13]; 0.024 µM) was 0.785, the viability ([13]; 0.12 µM) was 0.822 and the viability ([13]; 0.6 µM) was 0.816. For the same molecule, the viability ([13]; 3 µM) was 0.798, the viability ([13]; 15 µM) was 0.689 and the viability ([14]; 0.024 µM) was 0.927. The viability ([14]; 0.12 µM) was 1.05, the viability ([14]; 0.6 µM) was 0.988 and the viability ([14]; 3 µM) was 0.905. It also gave a viability ([14]; 15 µM) of 0.935.

Molecule `Nc1ncn([C@@H]2O[C@H](CO)[C@@H](O)[C@H]2O)c(=O)n1` [Azacytidine (Vidaza)] has a viability ([1]; 0.032 µM) of 1.07, a viability ([1]; 0.16 µM) of 0.973 and a viability ([1]; 0.8 µM) of 0.426. It also gave a viability ([1]; 4 µM) of 0.0789, a viability ([1]; 20 µM) of 0.0614 and a viability ([2]; 0.032 µM) of 0.841. The viability ([2]; 0.16 µM) was 1.05, the viability ([2]; 0.8 µM) was 0.67 and the viability ([2]; 4 µM) was 0.0823. The viability ([2]; 20 µM) was 0.0388, the viability ([3]; 0.032 µM) was 0.982 and the viability ([3]; 0.16 µM) was 1.17. It also gave a viability ([3]; 0.8 µM) of 0.936, a viability ([3]; 4 µM) of 0.501 and a viability ([3]; 20 µM) of 0.31. The viability ([4]; 0.032 µM) was 1, the viability ([4]; 0.16 µM) was 1.01 and the viability ([4]; 0.8 µM) was 0.901. It also gave a viability ([4]; 4 µM) of 0.7, a viability ([4]; 20 µM) of 0.595 and a viability ([5]; 0.032 µM) of 0.955. For the same molecule, the viability ([5]; 0.16 µM) was 1.08, the viability ([5]; 0.8 µM) was 1.04 and the viability ([5]; 4 µM) was 0.951. For the same molecule, the viability ([5]; 20 µM) was 0.832, the viability ([6]; 0.032 µM) was 1.05 and the viability ([6]; 0.16 µM) was 1.29. The viability ([6]; 0.8 µM) was 0.811, the viability ([6]; 4 µM) was 0.32 and the viability ([6]; 20 µM) was 0.134. The viability ([7]; 0.032 µM) was 0.935, the viability ([7]; 0.16 µM) was 1.34 and the viability ([7]; 0.8 µM) was 0.986. The viability ([7]; 4 µM) was 0.522, the viability ([7]; 20 µM) was 0.308 and the viability ([8]; 0.032 µM) was 0.912. It also gave a viability ([8]; 0.16 µM) of 0.96, a viability ([8]; 0.8 µM) of 0.935 and a viability ([8]; 4 µM) of 0.661. The viability ([8]; 20 µM) was 0.562, the viability ([9]; 0.032 µM) was 0.958 and the viability ([9]; 0.16 µM) was 1.01. For the same molecule, the viability ([9]; 0.8 µM) was 1.04, the viability ([9]; 4 µM) was 0.92 and the viability ([9]; 20 µM) was 0.766. The viability ([10]; 0.032 µM) was 1.22, the viability ([10]; 0.16 µM) was 0.976 and the viability ([10]; 0.8 µM) was 0.638. For the same molecule, the viability ([10]; 4 µM) was 0.14, the viability ([10]; 20 µM) was 0.0812 and the viability ([11]; 0.032 µM) was 1.07. It also gave a viability ([11]; 0.16 µM) of 0.961, a viability ([11]; 0.8 µM) of 0.757 and a viability ([11]; 4 µM) of 0.285. It also gave a viability ([11]; 20 µM) of 0.0947, a viability ([12]; 0.032 µM) of 0.933 and a viability ([12]; 0.16 µM) of 1.02. The viability ([12]; 0.8 µM) was 0.892, the viability ([12]; 4 µM) was 0.788 and the viability ([12]; 20 µM) was 0.621. The viability ([13]; 0.032 µM) was 0.946, the viability ([13]; 0.16 µM) was 0.979 and the viability ([13]; 0.8 µM) was 0.667. It also gave a viability ([13]; 4 µM) of 0.31, a viability ([13]; 20 µM) of 0.229 and a viability ([14]; 0.032 µM) of 0.937. The viability ([14]; 0.16 µM) was 1.11, the viability ([14]; 0.8 µM) was 0.889 and the viability ([14]; 4 µM) was 0.716. It also gave a viability ([14]; 20 µM) of 0.55.
